Values of other authors in US20160136091A1, “Orally Disintegrating Tablet” (SANWA KAGAKU KENKYUSHO CO., LTD., priority 2013, published 2016).

Conditions: 20+5° C.

SMILES	Amount of water required to dissolve 1 g
OCCN1C[C@H](O)[C@@H](O)[C@H](O)[C@H]1CO [miglitol]	less than 10 mL
Cn1c(=O)c2[nH]cnc2n(C)c1=O [theophylline]	less than 1,000 mL
